Data reported in patent publication US11413278B2, “Compounds and methods for promoting stress resistance” (priority 2015, dated 2022).
Entries after “also recorded” stand apart in the source; their conditions may differ. Where two headings read alike, the source gives them in different places.

Columns and labels:
[1] = Summary score for characterization of 38 core set hits; conditions: for D = Triple resistant: 2-point score, multiplex resistance (cadmium, MMS, H2O2); for S = Sum of Negative scores: human; for C = H2O2- & Cd-resistant: score, resistance to both H2O2 and cadmium
Procedure, shortened: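 Scoring awards 2 points per prominent longevity phenotype: resistance to multiple stresses, activation of FOXO3 and/or NRF2, reduced mTOR. Molecules with apparent DNA-damaging activity or cell toxicity in cultured human cells receive a negative point.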

[2] = system: human dermal fibroblast (HDF) primary cells; assay: H2O2-resistance in primary human dermal fibroblasts; assay type: cell-based; conditions: for fold induction at 10 µM: Homo sapiens; for Assay 6: H2O2-resistant, at 10 uM, human dermal fibroblast (HDF) primary cells: YES/NO
human PARP1 = biological target: T1, human PARP1 (Homo sapiens, UniProt P09874); assay: PARP inhibitor assay (HT Fluorescent Homogeneous PARP Inhibition Assay Kit); assay type: biochemical; conditions: for L = PARP inhibition: score
T1 construct: purchased Trevigen
Procedure, shortened: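 Human PARP1 with NAD and activated DNA, compounds at 10 μM final, 30 min at room temperature in dark. Resazurin/diaphorase cycling mix then added for 1 hr in dark before stop buffer; fluorescent homogeneous kit read-out.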

WI-38 cells [3] = assay: MMS resistance assay; assay type: cell-based, human; conditions: for fold induction at 10 µM: Homo sapiens, 12 h, normalized ATP measurement; for Triple resistant: H2O2, CdCl2 and MMS; for Assay 3: MMS-resistant / Assay 5: Triple resistant: YES/NO; for Assay 3: MMS-resistant: * indicates partial; for Assay 5: Triple resistant: H2O2, cadmium and MMS
Procedure, shortened: (§1)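 WI-38 cells were given compounds at five final concentrations (0.25–20 μM) in triplicate, followed by cadmium or MMS for 12 h. For MMS, medium was switched from OptiMEM+10% FBS to serum-free DMEM+2% BSA when compounds were added, 24 h before stressor. Two independent assays were run, analysed by global variance t-test.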

WI-38 cells [4] = conditions: for Percentage of propidium iodide-positive dead cells (no H2O2 stress treatment), at 10 uM: negative control 0.41% ± 0.23%
Experimental: WI-38 cells were seeded on 384-well plates for 24 hrs and then incubated with small molecules for 24 hrs. […] Images were collected on an INCell Analyzer 2000 (GE) and analyzed with the Developer software.

WI-38 cells [5] = assay: CdCl2 (cadmium) resistance assay; assay type: cell-based, human; conditions: for fold induction at 10 µM: Homo sapiens, 12 h, normalized ATP measurement; for Assay 4: H2O2- & Cd-resistant / Assay 2: Cadmium-resistant: YES/NO; for Assay 2: Cadmium-resistant: * indicates partial
Procedure, shortened: as §1

WI-38 cells [6] = assay: Propidium iodide (PI) cell-death imaging upon H2O2 stress; assay type: cell-based, human; conditions: for Assay 7: H2O2-resistant, at 10 uM, validated by propidium iodide (PI) cell-death imaging: w/H2O2, 3 hrs/4 hrs/5 hrs, YES/NO; for cytotoxicity at 10 µM: Homo sapiens, WI-38
[7] = system: PC12 cells expressing poly(Q)103-Htt-EGFP; assay: Poly(Q) toxicity & viability analysis (cellular model of Huntington's disease); assay type: cell-based, rat; conditions: for M = Huntington's poly-Q toxicity attenuation: score; for K = Huntington's poly-Q toxicity attenuation: summary score
Procedure, shortened: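 PC12 cells stably carrying inducible poly(Q)103-Htt-EGFP, whose induced expression causes aggregation and toxicity. Viability read 48 hrs later as ATP content by CellTiter-Glo.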

[8] = Experiment 1, HDF cells, read-out: Experiment 1, HDF cells (under H2O2 stress treatment), at 10 uM (fold change)
[9] = Experiment 2, HDF cells, read-out: Experiment 2, HDF cells (under H2O2 stress treatment), at 10 uM (fold change)
[10] = Exp. 1, WI-38 cells, read-out: Exp. 1, under MMS stress treatment, at 10 uM (fold change)
[11] = Exp. 2, WI-38 cells, read-out: Exp. 2, under MMS stress treatment, at 10 uM (fold change)
[12] = score in summary of 38 core set hits
[13] = Exp. 1, WI-38 cells, read-out: Exp. 1, under Cd2Cl2 stress treatment, at 10 uM (fold change)
[14] = Exp. 2, WI-38 cells, read-out: Exp. 2, under Cd2Cl2 stress treatment, at 10 uM (fold change)
[15] = WI-38 cells, 10 μM, both stressors
[16] = H2O2 3 hrs, 10 uM, n = 6, negative control 5.44% ± 0.79%, read-out: Percentage of propidium iodide-positive dead cells (under H2O2 stress treatment), 3 hrs
[17] = H2O2 4 hrs, 10 uM, n = 6, negative control 16.81% ± 1.42%, read-out: Percentage of propidium iodide-positive dead cells (under H2O2 stress treatment), 4 hrs
[18] = pre-treatment at 10 uM, 3.5 hours of H2O2, DMSO control 27.4% ± 6.5%, */**/*** = reduced by one/two/three standard deviations, read-out: Percentage of propidium iodide-positive dead cells (under H2O2 stress treatment), at 10 uM

T1 sequence (P09874 whole entry): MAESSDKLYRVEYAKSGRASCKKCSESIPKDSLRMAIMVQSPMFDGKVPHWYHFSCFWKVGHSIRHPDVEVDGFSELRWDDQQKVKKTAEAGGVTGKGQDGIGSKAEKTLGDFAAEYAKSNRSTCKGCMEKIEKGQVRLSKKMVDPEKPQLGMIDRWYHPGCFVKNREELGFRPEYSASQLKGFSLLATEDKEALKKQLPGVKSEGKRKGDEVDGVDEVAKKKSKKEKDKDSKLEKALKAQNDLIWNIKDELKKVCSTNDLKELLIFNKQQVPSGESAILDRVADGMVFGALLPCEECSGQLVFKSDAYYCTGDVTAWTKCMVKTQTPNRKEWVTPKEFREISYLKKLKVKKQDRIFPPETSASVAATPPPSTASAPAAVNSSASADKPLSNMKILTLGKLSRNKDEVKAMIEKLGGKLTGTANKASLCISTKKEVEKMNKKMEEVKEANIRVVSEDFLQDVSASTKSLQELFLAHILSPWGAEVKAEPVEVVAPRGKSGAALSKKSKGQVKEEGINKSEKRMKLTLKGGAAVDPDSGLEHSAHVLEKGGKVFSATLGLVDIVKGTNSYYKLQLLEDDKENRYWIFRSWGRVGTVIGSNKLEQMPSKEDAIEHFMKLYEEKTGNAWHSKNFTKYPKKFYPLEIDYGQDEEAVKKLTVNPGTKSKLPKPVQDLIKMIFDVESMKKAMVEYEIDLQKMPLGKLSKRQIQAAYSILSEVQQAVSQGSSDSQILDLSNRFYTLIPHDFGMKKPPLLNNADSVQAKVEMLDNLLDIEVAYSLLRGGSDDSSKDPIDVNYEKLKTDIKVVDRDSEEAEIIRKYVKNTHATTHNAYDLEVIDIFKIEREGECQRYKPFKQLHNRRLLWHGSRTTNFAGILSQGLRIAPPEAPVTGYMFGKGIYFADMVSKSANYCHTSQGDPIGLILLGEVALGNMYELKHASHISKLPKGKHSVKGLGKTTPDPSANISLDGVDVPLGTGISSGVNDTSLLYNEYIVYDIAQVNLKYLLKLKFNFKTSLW

Row | Compound | D = Triple resistant [1] | S = Sum of Negative scores [1] | C = H2O2- & Cd-resistant [1] | fold induction at 10 µM [2, 8] | fold induction at 10 µM [2, 9] | Assay 6: H2O2-resistant, at 10 uM, human dermal fibroblast (HDF) primary cells [2] | L = PARP inhibition (human PARP1) | fold induction at 10 µM (WI-38 cells [3]; [10]) | fold induction at 10 µM (WI-38 cells [3]; [11]) | B = MMS resistant (WI-38 cells [3]; [12]) | B = MMS resistant (WI-38 cells [3]; summary score) | D = Triple resistant (WI-38 cells [3]; summary score) | Percentage of propidium iodide-positive dead cells (no H2O2 stress treatment), at 10 uM (WI-38 cells [4]) | fold induction at 10 µM (WI-38 cells [5]; [13]) | fold induction at 10 µM (WI-38 cells [5]; [14]) | A = Cadmium resistant (WI-38 cells [5]; [12]) | A = Cadmium resistant (WI-38 cells [5]; summary score) | C = H2O2- & Cd-resistant (WI-38 cells [5]; summary score) | Assay 7: H2O2-resistant, at 10 uM, validated by propidium iodide (PI) cell-death imaging (WI-38 cells [6]; 10 uM) | cytotoxicity at 10 µM (WI-38 cells [6]; [16]) [%] | other results
1 | CCc1ccc(Oc2nc3ccccn3c(=O)c2/C=C(\C#N)C(=O)NC2CCCCC2)cc1 [Gr-5A] | 0 | 0 | 1 | 2.95 | 2 | YES | 0 | 0.83 | 1.49 | 0 | 0 | 0 | 0.48% ± 0.20%, | 4.12 | 2.4 | 1 | 0 | 0 | YES | 1.64 | CdCl2-resistant (WI-38 cells [5]): YES; H2O2- & CdCl2-resistant (WI-38 cells [5]): YES; CdCl2-resistant (WI-38 cells [5]; WI-38 cells, 10 μM): YES; H2O2- & CdCl2-resistant (WI-38 cells [5]; [15]): YES; cytotoxicity at 10 µM (WI-38 cells [6]; [17]): 8.97%; cytotoxicity at 10 µM (WI-38 cells [6]; [18]): 3.7%; M = Huntington's poly-Q toxicity attenuation [7]: 0; K = Huntington's poly-Q toxicity attenuation [7]: 0
2 | COc1cccc(/C=C2\CN(C)C/C(=C\c3cccc(OC)c3OC)C2=O)c1OC [O23] | 0 | 1 | 0 | 1.68 | 52.4 | YES | 0 | 1.04 | 1.28 | 0 | 0 | 0 | 2.61% ± 1.37%, | 0.69 | 0.64 | 0 | 1 | 1 | YES | 5.65 | PI cell-death imaging without H2O2 (indicating potential toxicity) (WI-38 cells [4]; Assay 8(k), without H2O2, at 10 uM): YES; PI-positive dead cells under normal conditions (WI-38 cells [4]; WI-38, no H2O2, control 0.4±0.2%): 2.6%±1.4%; Assay 4: H2O2- & Cd-resistant (WI-38 cells [5]): YES; Assay 2: Cadmium-resistant (WI-38 cells [5]): YES; cytotoxicity at 10 µM (WI-38 cells [6]; [17]): 4.76%; cytotoxicity at 10 µM (WI-38 cells [6]; H2O2 5 hrs, 10 uM, n = 6, negative control 22.50% ± 1.53%, read-out: Percentage of propidium iodide-positive dead cells (under H2O2 stress treatment), 5 hrs): 8%; cytotoxicity at 10 µM (WI-38 cells [6]; [18]): 10.2%; M = Huntington's poly-Q toxicity attenuation [7]: 0; K = Huntington's poly-Q toxicity attenuation [7]: 0
3 | CC(C)(C)c1ccc(OCC(=O)Nc2ccc3c4c(cccc24)C(=O)NC3=O)cc1 [O22] | 2 | 0 | 1 | 15.3 | 49.6 | YES | 1 | 3.22 | 14.8 | 1 | 1 | 2 | 0.37% ± 0.14%, | 5.61 | 14.7 | 1 | 1 | 1 | YES | 4.84 | Inhibition of PARP1 (human PARP1; 10 μM, in vitro): confirmed as PARP inhibitors; also recorded: inhibitors of PARP1; MMS-resistant (WI-38 cells [3]): YES; Multiplex resistance to cadmium, MMS and H2O2 (WI-38 cells [3]; 0.25 μM to 20 μM, repurchased molecules): reproducibly conferred multiplex resistance; Triple resistant (WI-38 cells [3]): YES; MMS-resistant (WI-38 cells [3]; WI-38 cells, 10 μM): YES; Triple resistant (WI-38 cells [3]; WI-38 cells, 10 μM): YES; Assay 3: MMS-resistant (WI-38 cells [3]): YES; Assay 5: Triple resistant (WI-38 cells [3]): YES; CdCl2-resistant (WI-38 cells [5]): YES; H2O2- & CdCl2-resistant (WI-38 cells [5]): YES; CdCl2-resistant (WI-38 cells [5]; WI-38 cells, 10 μM): YES; H2O2- & CdCl2-resistant (WI-38 cells [5]; [15]): YES; Assay 4: H2O2- & Cd-resistant (WI-38 cells [5]): YES; Assay 2: Cadmium-resistant (WI-38 cells [5]): YES; cytotoxicity at 10 µM (WI-38 cells [6]; [18]): 4.1%; M = Huntington's poly-Q toxicity attenuation [7]: 0; K = Huntington's poly-Q toxicity attenuation [7]: 0
4 | O=C(/C=C/c1cn(-c2ccccc2)nc1-c1cccnc1)c1ccccc1 [Gr-6B] | 0 | 0 | 1 | 3.6 | 57.6 | YES | 0 | 2.12 | 1.22 | 0 | 1 | 2 | 0.46% ± 0.25%, | 5.07 | 2.65 | 1 | 1 | 1 | YES | 2.62 | Assay 3: MMS-resistant (WI-38 cells [3]): YES; Assay 5: Triple resistant (WI-38 cells [3]): YES; CdCl2-resistant (WI-38 cells [5]): YES; H2O2- & CdCl2-resistant (WI-38 cells [5]): YES; CdCl2-resistant (WI-38 cells [5]; WI-38 cells, 10 μM): YES; H2O2- & CdCl2-resistant (WI-38 cells [5]; [15]): YES; Assay 4: H2O2- & Cd-resistant (WI-38 cells [5]): YES; Assay 2: Cadmium-resistant (WI-38 cells [5]): YES; cytotoxicity at 10 µM (WI-38 cells [6]; [18]): 2.1%; Viability of PC12 cells upon induction of toxic poly(Q)103-Htt-EGFP aggregates ([7]; 2.5 μM, 5 μM, 10 μM and 20 μM): consistently increased the viability; Assay 20: Huntington's poly-Q toxicity attenuation ([7]; 10 uM, YES/NO): YES; M = Huntington's poly-Q toxicity attenuation [7]: 1; K = Huntington's poly-Q toxicity attenuation [7]: 1
